Reference: US20030138773A1, “METHODS OF TRANSCRIPTIONALLY MODULATING GENE EXPRESSION” (priority 1989, published 2003)

How the values were obtained:
[1] = tested on: mouse mammary tumor virus (MMTV) promoter; assay: MMTV promoter-luciferase reporter, cell clone M10 (high-throughput screen); type: cell-based; conditions: for stimulation of the MMTV promoter in cell clone M10 by steroids: FIG. 43
Excerpt: NIH/3T3 fibroblast cells (ATCC number CRL 1658) were used for transfection of plasmids containing the mouse mammary tumor virus (MMTV) promoter linked to firefly luciferase coding sequences (see below). Cells were propagated in Dulbecco's modified Eagle's medium (DMEM) obtained from Gibco, Grand Island, N.Y. and supplemented with 10% FCS. For high-throughput (HTP) screening, transfected NIH/3T3 clones were transferred to serum free defined medium consisting of Iscove's modified Eagle's medium (IMEM) and Ham's F12 medium (1:1) supplemented with growth factors, hormones and nutrients as described previously (43).
The firefly luciferase gene was removed from the plant expression plasmid pDO432 (33) (FIG. 1) as a 1.9 kb BamHI fragment and cloned into the BamHI site of pSVL (Pharmacia, Piscataway, N.J.), a mammalian expression vector containing the SV40 promoter. The resulting plasmid (pSVLuci; FIG. 2) was digested with XhoI and SalI to produce a 2.4 kb fragment containing the luciferase coding sequences and the SV40 late polyadenylation site. This fragment was inserted into the XhoI site of pMSG (Pharmacia, Piscataway, N.J.), a eukaryotic expression vector containing the MMTV promoter. The resulting MMTV promoter-luciferase fusion plasmid (pMLuci; FIG. 3) was used to transfect NIH/3T3 cells as described below (section El). Similar constructs can be made using luciferase vectors from Clontech (Palo Alto, Calif.).
pMluci (FIG. 3) and pSV2Neo, an antibiotic resistance plasmid (34), were co-transfected into NIH/3T3 mouse fibroblast cells using the calcium phosphate precipitation method (15) with a commercially available kit (Pharmacia, Piscataway N.J.). […] Once sufficient cell numbers were obtained, clones were analyzed based on several criteria: constitutive luciferase production, induction of luciferase expression by dexamethasone (1 μM, Sigma, St. Louis, Mo.), satisfactory attachment to microtiter plates used in the high-throughput screen (see section G) and acceptable standard deviation in multiple luciferase expression assays (see below for assay protocol). […]

G-CSF mRNA = assay: Northern blot of endogenous G-CSF mRNA in 5637 cells; type: cell-based, human; conditions: G-CSF-specific probe, compared to solvent DMSO, FIG. 46
Experimental: Total cellular RNA was isolated from the G21 cell clone or from untransfected 5637 cells following incubation for 6 hours with various transcriptionally modulating chemicals identified in the high-throughput screen. Cells were grown in serum free medium as described above. Total cellular RNA was isolated using the RNAZol method (CINNA/BIOTECX, Friendswood, Tex., Laboratories International, Inc.). Cells were resuspended and lysed with RNAZol solution (1.5 ml/9 cm petri dish) and the RNA was solubilized by passing the lysate a few times through a pipette. Chloroform was added to the homogenate (0.1 ml/1 ml), and samples were shaken for 15 seconds followed by a 5 minute incubation on ice. After centrifuging for 10 minutes, the upper phase was collected and an equal volume of isopropanol was added. Samples were incubated for 45 minutes at −20° C., and the RNA was pelleted for 15 minutes at 12,000×g at 4° C. The RNA pellet was then washed with 70% ethanol and dried briefly under vacuum.
Total cellular RNA was isolated from 5637 cells following incubation with chemicals as described above and electrophoresed in a 1% Agarose-1M Formaldehyde gel. […] Bands were excised and counted in a liquid scintillation counter (LKB, Gaithersburg, Md.), and counts obtained with the G-CSF specific probe were normalized relative to the counts obtained with the B-Actin specific probe.

human G-CSF promoter = assay: G-CSF promoter-luciferase reporter, cell clone G21 (high-throughput screen); type: cell-based; conditions: 5 μg/ml; FIG. 42
Excerpt: A human bladder carcinoma cell line (U5637, ATCC number HTB 9) was used for transfection of plasmids containing the human Granulocyte-Colony Stimulating Factor (G-CSF) promoter (see below) and was maintained in RPMI medium supplemented with 10% FCS. For HTP screening, transfected 5637 clones were transferred to a serum free defined medium identical to that used for the NIH/3T3 clones.
The sequences of OL-1, OL-2 and OL-5 recognize the G-CSF promoter region, OL-4 recognizes the first intron/exon junction and OL-3 recognizes sequences within the second exon (32). […]
(§1) To assay for luciferase expression in transient expression assays in the various transfected clones, cells were incubated with various transcriptional inducers in serum free defined media, washed 3 times with Dulbecco's phosphate-buffered saline (D-PBS, Gibco) and lysed in Lysis Buffer 1 (50 mM Tris acetate pH 7.9, 1 mM EGTA, 10 mM magnesium acetate, 1 mg/ml bovine serum albumin [BSA], 0.5% Brij 58, 2 mM ATP, 100 mM dithiothreitol [DTT]). […] Samples were counted individually in an LKB (Gaithersburg, Md.) scintillation counter on a setting which allows measurement of individual photons by switching off the coincidence circuit. […]

[2] = tested on: human growth hormone promoter; assay: hGH promoter-luciferase reporter, cell clone 532 (high-throughput screen); type: cell-based; conditions: 100 nM; FIG. 42
Excerpt: A rat pituitary cell line, designated GC, (4, 25) was used for transfection of plasmids containing the human growth hormone promoter (see below) and was maintained in DMEM and Ham's F12 medium (1:1), supplemented with 12.5% FCS. For HTP screening, transfected GC clones were transferred to serum free defined medium consisting of DMEM and Ham's F12 medium (1:1) supplemented with growth factors, hormones and nutrients as described previously (17, 5).
The SalI-XhoI fragment of pSVLuci (FIG. 2) containing the luciferase coding sequences and the SV40 late polyadenylation site was inserted into pUC 8 (Biorad, Richmond, Calif.), which had been linearized by a SmaI/HinCII digestion and ligated to XhoI linkers (New England Biolabs, Beverly, Mass.). […]
as §1

Question: With `C[C@]12CCC(=O)C=C1CC[C@@H]1[C@@H]2[C@@H](O)C[C@]2(C=O)[C@@H](C(=O)CO)CC[C@@H]12` [aldosterone] as the compound, how does the “stimulation of the MMTV promoter in cell clone M10 by steroids” value [1] read?
Answer: stimulates

Question: Which “stimulation of luciferase expression, clone M10” value ([1]; 1 μM, FIG. 42) does the source give for `C[C@@H]1C[C@H]2[C@@H]3CCC4=CC(=O)C=C[C@]4(C)[C@@]3(F)[C@@H](O)C[C@]2(C)[C@@]1(O)C(=O)CO` [dexamethasone] here?
Answer: 11.6 fold

Question: `CC(=O)[C@H]1CC[C@H]2[C@@H]3CCC4=CC(=O)CC[C@]4(C)[C@H]3CC[C@]12C` [progesterone] was tested. Which “stimulation of the MMTV promoter in cell clone M10 by steroids” value [1] did it give?
Answer: did not

Question: “IFN-gamma: a proteinaceous positive regulator” was tested. Which “production of endogenous G-CSF mRNA” value (G-CSF mRNA) did it give?
Answer: increased

Question: With lipopolysaccharide as the compound, how does the “stimulation of luciferase expression, clone G21” value (human G-CSF promoter) read?
Answer: 5.7 fold

Question: “rat growth hormone releasing factor: known inducer of hGH expression (Bachem) (HADAIFTSSYRRILGQLYARKLLHEIMNRQQGERNQEQRSRFN; Somatoliberin; UniProt P09916 31-73, looked up)” was tested. Which “stimulation of luciferase expression, clone 532” value [2] did it give?
Answer: 2.2 fold
